# Earlier results in patent US20200038317A1, “EXTENDED RELEASE, ABUSE DETERRENT PHARMACEUTICAL COMPOSITIONS” (SpecGX LLC, priority 2012, published 2020).
# Conditions: at 25° C.
smiles,measurement,value
O=C(O)CC(O)(CC(=O)O)C(=O)O [citric acid],relative humidity at which the plasticizer deliquesces,about 75 % relative humidity
